{"source": "BindingDB's records for doi:10.1124/jpet.105.087809", "about": "(Universit&Aagrove, 2005)", "key": {"[1]": {"biological_target": "T1, Alpha-1A adrenergic receptor (Homo sapiens, UniProt P35348)", "T1 sequence (P35348 whole entry)": "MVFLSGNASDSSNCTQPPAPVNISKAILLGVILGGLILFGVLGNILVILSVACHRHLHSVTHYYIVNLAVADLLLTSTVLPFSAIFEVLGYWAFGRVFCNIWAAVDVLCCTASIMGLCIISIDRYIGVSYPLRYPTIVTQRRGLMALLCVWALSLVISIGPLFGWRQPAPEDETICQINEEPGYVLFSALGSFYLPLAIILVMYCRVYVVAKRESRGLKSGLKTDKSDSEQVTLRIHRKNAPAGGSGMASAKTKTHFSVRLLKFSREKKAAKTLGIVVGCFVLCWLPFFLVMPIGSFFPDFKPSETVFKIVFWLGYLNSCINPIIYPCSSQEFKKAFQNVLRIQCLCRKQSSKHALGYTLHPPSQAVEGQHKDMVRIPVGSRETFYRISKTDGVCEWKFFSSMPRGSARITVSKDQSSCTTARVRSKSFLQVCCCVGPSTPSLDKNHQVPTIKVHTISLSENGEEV"}, "[2]": {"biological_target": "T2, Alpha-1D adrenergic receptor (Homo sapiens, UniProt P25100)", "T2 sequence (P25100 whole entry)": "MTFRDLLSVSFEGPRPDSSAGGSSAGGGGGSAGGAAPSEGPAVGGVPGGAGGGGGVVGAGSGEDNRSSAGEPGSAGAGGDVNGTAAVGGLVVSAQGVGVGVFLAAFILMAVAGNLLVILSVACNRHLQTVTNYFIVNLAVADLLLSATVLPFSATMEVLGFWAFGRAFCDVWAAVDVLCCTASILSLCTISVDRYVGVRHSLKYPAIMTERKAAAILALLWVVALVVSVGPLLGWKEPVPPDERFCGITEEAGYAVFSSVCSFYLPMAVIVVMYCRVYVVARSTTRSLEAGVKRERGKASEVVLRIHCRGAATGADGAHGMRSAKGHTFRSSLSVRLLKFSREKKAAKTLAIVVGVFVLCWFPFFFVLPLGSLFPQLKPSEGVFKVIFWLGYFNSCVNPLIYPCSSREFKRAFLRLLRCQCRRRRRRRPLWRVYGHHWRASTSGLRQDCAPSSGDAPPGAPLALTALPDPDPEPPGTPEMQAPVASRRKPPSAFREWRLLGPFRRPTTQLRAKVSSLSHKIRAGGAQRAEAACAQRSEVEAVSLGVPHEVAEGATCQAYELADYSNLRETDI"}, "[3]": {"biological_target": "T3, Alpha-1B adrenergic receptor (Homo sapiens, UniProt P35368)", "T3 sequence (P35368 whole entry)": "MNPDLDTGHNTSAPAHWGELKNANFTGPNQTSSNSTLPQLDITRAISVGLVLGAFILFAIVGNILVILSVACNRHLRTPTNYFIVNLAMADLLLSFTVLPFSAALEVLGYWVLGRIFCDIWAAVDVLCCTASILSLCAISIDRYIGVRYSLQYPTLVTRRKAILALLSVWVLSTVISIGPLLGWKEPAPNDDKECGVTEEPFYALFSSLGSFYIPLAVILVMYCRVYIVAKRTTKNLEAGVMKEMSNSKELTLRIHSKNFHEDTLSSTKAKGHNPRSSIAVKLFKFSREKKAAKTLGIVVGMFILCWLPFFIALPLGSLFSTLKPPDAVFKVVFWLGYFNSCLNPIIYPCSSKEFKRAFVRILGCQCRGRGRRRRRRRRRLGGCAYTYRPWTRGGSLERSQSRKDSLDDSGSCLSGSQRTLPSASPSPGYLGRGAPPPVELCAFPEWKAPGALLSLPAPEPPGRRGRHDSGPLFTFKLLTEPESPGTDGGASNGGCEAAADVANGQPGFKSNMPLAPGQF"}, "D(2) dopamine receptor": {"biological_target": "D(2) dopamine receptor (Rattus norvegicus, UniProt P61169)", "sequence (P61169 whole entry)": "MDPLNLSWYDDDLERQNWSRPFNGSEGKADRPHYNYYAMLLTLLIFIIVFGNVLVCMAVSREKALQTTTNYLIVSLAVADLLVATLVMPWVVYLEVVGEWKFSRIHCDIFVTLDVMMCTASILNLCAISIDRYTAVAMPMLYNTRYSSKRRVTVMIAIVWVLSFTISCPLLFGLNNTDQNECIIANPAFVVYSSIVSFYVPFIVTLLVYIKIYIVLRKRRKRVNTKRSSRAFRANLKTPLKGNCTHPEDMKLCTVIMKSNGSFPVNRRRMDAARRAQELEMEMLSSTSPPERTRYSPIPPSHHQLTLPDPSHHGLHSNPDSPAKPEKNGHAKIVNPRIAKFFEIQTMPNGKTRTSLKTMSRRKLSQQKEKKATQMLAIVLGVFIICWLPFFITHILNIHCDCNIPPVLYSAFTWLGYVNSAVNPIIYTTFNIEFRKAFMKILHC"}, "[4]": {"biological_target": "T4, Alpha-2C adrenergic receptor (Rattus norvegicus, UniProt P22086)", "T4 sequence (P22086 whole entry)": "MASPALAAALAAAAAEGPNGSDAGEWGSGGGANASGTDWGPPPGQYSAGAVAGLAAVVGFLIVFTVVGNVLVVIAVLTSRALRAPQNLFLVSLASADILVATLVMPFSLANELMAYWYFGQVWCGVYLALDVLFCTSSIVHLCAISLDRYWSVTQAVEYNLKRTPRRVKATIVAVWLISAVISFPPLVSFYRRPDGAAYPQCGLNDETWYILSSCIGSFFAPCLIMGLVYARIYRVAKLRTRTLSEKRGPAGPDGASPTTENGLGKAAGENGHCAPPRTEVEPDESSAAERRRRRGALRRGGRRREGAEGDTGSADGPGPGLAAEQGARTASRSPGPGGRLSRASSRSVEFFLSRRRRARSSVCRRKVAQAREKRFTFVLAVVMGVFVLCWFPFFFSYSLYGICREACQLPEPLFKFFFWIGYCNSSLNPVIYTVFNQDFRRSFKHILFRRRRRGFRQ"}, "[5]": {"biological_target": "T5, 5-hydroxytryptamine receptor 1A (Homo sapiens, UniProt P08908)", "T5 sequence (P08908 whole entry)": "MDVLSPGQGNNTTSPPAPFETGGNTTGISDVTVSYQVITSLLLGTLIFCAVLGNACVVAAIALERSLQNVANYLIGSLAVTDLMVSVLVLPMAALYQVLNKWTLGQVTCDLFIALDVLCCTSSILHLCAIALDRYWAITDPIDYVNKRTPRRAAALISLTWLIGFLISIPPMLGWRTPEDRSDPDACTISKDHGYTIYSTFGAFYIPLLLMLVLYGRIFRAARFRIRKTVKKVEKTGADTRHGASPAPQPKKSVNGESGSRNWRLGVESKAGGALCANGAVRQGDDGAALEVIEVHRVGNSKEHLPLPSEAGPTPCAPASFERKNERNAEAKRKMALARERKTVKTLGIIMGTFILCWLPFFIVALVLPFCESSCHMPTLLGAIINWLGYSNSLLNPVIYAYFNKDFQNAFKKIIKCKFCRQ"}}, "data": [{"smiles": "O=C(CCCN1CCC2(CC1)C(=O)NCN2c1ccccc1)c1ccc(F)cc1", "note": "[8-[4-(4-fluorophenyl)-4-oxidanylidene-butyl]-1-phenyl-1,3,8-triazaspiro[4.5]decan-4-one]", "values": [{"measurement": "Ki", "setting": "[1]", "value": 20.4, "unit": "nM"}, {"measurement": "Ki", "setting": "[2]", "value": 8.32, "unit": "nM"}]}, {"smiles": "COc1ccccc1N1CCN(CCN(C(=O)C2CCCCC2)c2ccccc2OC)CC1", "note": "[Rec 27/0074]", "values": [{"measurement": "Ki", "setting": "[3]", "value": 1.02, "unit": "nM"}, {"measurement": "Ki", "setting": "D(2) dopamine receptor", "value": 316, "unit": "nM"}, {"measurement": "Ki", "setting": "[1]", "value": 5.13, "unit": "nM"}, {"measurement": "Ki", "setting": "[4]", "value": "> 10000", "unit": "nM"}, {"measurement": "Ki", "setting": "[5]", "value": 0.89, "unit": "nM"}, {"measurement": "Ki", "setting": "[2]", "value": 4.17, "unit": "nM"}]}, {"smiles": "COc1ccc(Br)c(N2CCN(CCN(C(=O)C3CCCCC3)c3ccccc3OC(F)(F)F)CC2)c1", "note": "[Rec 27/0224]", "values": [{"measurement": "Ki", "setting": "[3]", "value": 646, "unit": "nM"}, {"measurement": "Ki", "setting": "D(2) dopamine receptor", "value": 4790, "unit": "nM"}, {"measurement": "Ki", "setting": "[1]", "value": 224, "unit": "nM"}, {"measurement": "Ki", "setting": "[4]", "value": "> 10000", "unit": "nM"}, {"measurement": "Ki", "setting": "[5]", "value": 1.05, "unit": "nM"}, {"measurement": "Ki", "setting": "[2]", "value": 724, "unit": "nM"}]}, {"smiles": "COc1ccccc1N1CCN(CCN(C(=O)C2CCCCC2)c2ccccc2[N+](=O)[O-])CC1", "note": "[N-[2-[4-(2-methoxyphenyl)-1-piperazinyl]-ethyl]-N-(2-nitrophenyl)cyclohexanecarboxamide]", "values": [{"measurement": "Ki", "setting": "D(2) dopamine receptor", "value": 871, "unit": "nM"}, {"measurement": "Ki", "setting": "[4]", "value": "> 10000", "unit": "nM"}]}, {"smiles": "COc1ccccc1N1CCN(CCN(C(=O)C2CCCCC2)c2ccccn2)CC1", "values": [{"measurement": "Ki", "setting": "[3]", "value": 661, "unit": "nM"}, {"measurement": "Ki", "setting": "D(2) dopamine receptor", "value": 347, "unit": "nM"}, {"measurement": "Ki", "setting": "[4]", "value": 1260, "unit": "nM"}]}]}
